# Reference: patent US8017607B2, “N-substituted-pyrrolidines as inhibitors of MDM2-P-53 interactions” (Hoffmann-La Roche Inc., priority 2009, dated 2011)
# pIC50: −log10 of the molar value.
# Target: interaction between p53 and MDM2 proteins (recombinant GST-tagged MDM2, biotinylated p53 peptide) (Homo sapiens, UniProt Q00987)
# Experiment: HTRF assay of inhibition of the p53-MDM2 interaction
# Format: binding
# Conditions: bsa: 0.02%
# Protocol: The ability of the compounds to inhibit the interaction between p53 and MDM2 proteins was measured by an HTRF (homogeneous time-resolved fluorescence) assay in which recombinant GST-tagged MDM2 binds to a peptide that resembles the MDM2-interacting region of p53 (Lane et al.). Binding of GST-MDM2 protein and p53-peptide (biotinylated on its N-terminal end) is registered by the FRET (fluorescence resonance energy transfer) between Europium (Eu)-labeled anti-GST antibody and streptavidin-conjugated Allophycocyanin (APC).
# […] Add 10 uL diluted compounds (1:5 dilution in reaction buffer) to each well, mix by shaking. Add 20 uL biotinylated p53 peptide (180 nM working solution) in reaction buffer to each well and mix on shaker. Incubate at 37° C. for 1 h. Add 20 uL streptavidin-APC and Eu-anti-GST antibody mixture (6 nM Eu-anti-GST and 60 nM streptavidin-APC working solution) in TBS buffer with 0.2% BSA, shake at room temperature for 30 minutes and read using a TRF-capable plate reader at 665 and 615 nm (Victor 5, Perkin ElmerWallac). If not specified, the reagents were purchased from Sigma Chemical Co.
# interaction between p53 and MDM2 proteins (recombinant GST-tagged MDM2, biotinylated p53 peptide), sequence (Q00987 whole entry): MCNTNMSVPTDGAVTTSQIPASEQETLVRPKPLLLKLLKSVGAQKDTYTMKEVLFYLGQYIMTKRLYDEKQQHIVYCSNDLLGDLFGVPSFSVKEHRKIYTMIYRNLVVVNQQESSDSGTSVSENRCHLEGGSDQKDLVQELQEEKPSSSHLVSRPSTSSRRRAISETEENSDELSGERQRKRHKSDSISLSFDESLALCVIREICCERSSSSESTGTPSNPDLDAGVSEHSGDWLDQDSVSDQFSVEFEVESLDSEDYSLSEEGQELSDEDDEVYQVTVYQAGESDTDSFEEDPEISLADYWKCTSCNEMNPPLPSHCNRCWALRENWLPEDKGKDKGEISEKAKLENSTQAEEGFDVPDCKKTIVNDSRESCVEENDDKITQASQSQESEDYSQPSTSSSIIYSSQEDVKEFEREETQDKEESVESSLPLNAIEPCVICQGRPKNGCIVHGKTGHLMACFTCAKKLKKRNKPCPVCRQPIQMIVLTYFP
row,SMILES,pIC50
1,"CC(C)(C)C[C@@H]1CN(C(=O)NCC[C@H](O)CO)[C@H](c2cccc(Cl)c2F)[C@@]1(C#N)c1ccc(Cl)cc1F (mixture of isomers) [Example 4, rac-(2S,3S,4S)-2-(3-chloro-2-fluoro-phenyl)-3-(4-chloro-2-fluoro-phenyl)-3-cyano-4-(2,2-dimethyl-propyl)-pyrrolidine-1-carboxylic acid ((S)-3,4-dihydroxy-butyl)-amide]",6.57
2,"CC(C)(C)C[C@@H]1CN(C(=O)c2ccc(C(=O)O)cc2)[C@H](c2cccc(Cl)c2F)[C@@]1(C#N)c1ccc(Cl)cc1F (racemic) [Example 12, rac-4-[(2S,3S,4S)-2-(3-chloro-2-fluoro-phenyl)-3-(4-chloro-2-fluoro-phenyl)-3-cyano-4-(2,2-dimethyl-propyl)-pyrrolidine-1-carbonyl]-benzoic acid]",6.19
3,"CC(C)(C)C[C@@H]1CN(C(=O)Nc2cccc(-c3nnn[nH]3)c2)[C@H](c2cccc(Cl)c2F)[C@@]1(C#N)c1ccc(Cl)cc1F (racemic) [Example 16, rac-(2S,3S,4S)-2-(3-chloro-2-fluoro-phenyl)-3-(4-chloro-2-fluoro-phenyl)-3-cyano-4-(2,2-dimethyl-propyl)-pyrrolidine-1-carboxylic acid [3-(1H-tetrazol-5-yl)-phenyl]-amide]",5.49
4,"CC(C)(C)C[C@@H]1CN(C(=O)Nc2ccncc2)[C@H](c2cccc(Cl)c2F)[C@@]1(C#N)c1ccc(Cl)cc1F (racemic) [Example 48, rac-(2S,3S,4S)-2-(3-chloro-2-fluoro-phenyl)-3-(4-chloro-2-fluoro-phenyl)-3-cyano-4-(2,2-dimethyl-propyl)-pyrrolidine-1-carboxylic acid pyridin-4-ylamide]",5.76
